PubChem BioAssay AID1963975 (Molecular Pharmacology Branch, DTP, NCI, 2024)

System: 624824-186-R-J2-PDC multicell spheroids, viability
Assay: Anticancer human tumor 624824-186-R-J2-PDC patient-derived colon adenocarcinoma cell line growth inhibition [PI3K]
Conditions: for IC50: curve of first compound; for viability, T/C: stronger effect = lower value
Method in brief: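 Targeted small molecules plus PI3K inhibitors, half-log dose series from Cmax (default top 10 microM), were applied to heterotypic spheroids of cancer cells with HUVEC and MSCs. Viability indicated growth inhibition.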

[1] = second compound 0.00316 µM, first compound 0.0316 µM
[2] = second compound 0.00316 µM, first compound 0.1 µM
[3] = second compound 0.00316 µM, first compound 0.316 µM
[4] = second compound 0.00316 µM, first compound 1 µM
[5] = second compound 0.01 µM, first compound 0.0316 µM
[6] = second compound 0.01 µM, first compound 0.1 µM
[7] = second compound 0.01 µM, first compound 0.316 µM
[8] = second compound 0.01 µM, first compound 1 µM
[9] = second compound 0.0316 µM, first compound 0.0316 µM
[10] = second compound 0.0316 µM, first compound 0.1 µM
[11] = second compound 0.0316 µM, first compound 0.316 µM
[12] = second compound 0.0316 µM, first compound 1 µM
[13] = second compound 0.1 µM, first compound 0.0316 µM
[14] = second compound 0.1 µM, first compound 0.1 µM
[15] = second compound 0.1 µM, first compound 0.316 µM
[16] = second compound 0.1 µM, first compound 1 µM
[17] = second compound 0.316 µM, first compound 0.0316 µM
[18] = second compound 0.316 µM, first compound 0.1 µM
[19] = second compound 0.316 µM, first compound 0.316 µM
[20] = second compound 0.316 µM, first compound 1 µM
[21] = second compound 1 µM, first compound 0.0316 µM
[22] = second compound 1 µM, first compound 0.1 µM
[23] = second compound 1 µM, first compound 0.316 µM
[24] = second compound 1 µM, first compound 1 µM
[25] = second compound 0.00316 µM, first compound 3.16 µM
[26] = second compound 0.00316 µM, first compound 10 µM
[27] = second compound 0.01 µM, first compound 3.16 µM
[28] = second compound 0.01 µM, first compound 10 µM
[29] = second compound 0.0316 µM, first compound 3.16 µM
[30] = second compound 0.0316 µM, first compound 10 µM
[31] = second compound 0.1 µM, first compound 3.16 µM
[32] = second compound 0.1 µM, first compound 10 µM
[33] = second compound 0.316 µM, first compound 3.16 µM
[34] = second compound 0.316 µM, first compound 10 µM
[35] = second compound 1 µM, first compound 3.16 µM
[36] = second compound 1 µM, first compound 10 µM
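Further: spheroids exposed to agents for 7 days before viability read.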
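Wherever viability, T/C is given: 100% = DMSO vehicle treated spheroids.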

Structure (SMILES): CCN1CCN(Cc2ccc(Nc3ncc(F)c(-c4cc(F)c5nc(C)n(C(C)C)c5c4)n3)nc2)CC1 + COc1c(OCCCN2CCOCC2)ccc2c3n(c(=NC(=O)c4cnc(N)nc4)nc12)CCN3
- IC50 (second compound 0.00316 µM): > 1 µM
- IC50 (second compound 0.01 µM): > 1 µM
- IC50 (second compound 0.0316 µM): > 1 µM
- IC50 (second compound 0.1 µM): > 1 µM
- IC50 (second compound 0.316 µM): > 1 µM
- IC50 (second compound 1 µM): > 1 µM
- viability, T/C (second compound 0.00316 µM, first compound 0.00316 µM): 94.1%
- viability, T/C (second compound 0.00316 µM, first compound 0.01 µM): 90.4%
- viability, T/C [1]: 107%
- viability, T/C [2]: 76.5%
- viability, T/C [3]: 89.4%
- viability, T/C [4]: 106%
- viability, T/C (second compound 0.01 µM, first compound 0.00316 µM): 120%
- viability, T/C (second compound 0.01 µM, first compound 0.01 µM): 73.7%
- viability, T/C [5]: 78.7%
- viability, T/C [6]: 75.9%
- viability, T/C [7]: 81.7%
- viability, T/C [8]: 94.6%
- viability, T/C (second compound 0.0316 µM, first compound 0.00316 µM): 91.8%
- viability, T/C (second compound 0.0316 µM, first compound 0.01 µM): 99.1%
- viability, T/C [9]: 75.3%
- viability, T/C [10]: 66.9%
- viability, T/C [11]: 80.5%
- viability, T/C [12]: 89.9%
- viability, T/C (second compound 0.1 µM, first compound 0.00316 µM): 81.1%
- viability, T/C (second compound 0.1 µM, first compound 0.01 µM): 63.4%
- viability, T/C [13]: 64.6%
- viability, T/C [14]: 54.2%
- viability, T/C [15]: 68.2%
- viability, T/C [16]: 83.8%
- viability, T/C (second compound 0.316 µM, first compound 0.00316 µM): 69.1%
- viability, T/C (second compound 0.316 µM, first compound 0.01 µM): 57.6%
- viability, T/C [17]: 58.9%
- viability, T/C [18]: 58.9%
- viability, T/C [19]: 69.4%
- viability, T/C [20]: 91.8%
- viability, T/C (second compound 1 µM, first compound 0.00316 µM): 64.2%
- viability, T/C (second compound 1 µM, first compound 0.01 µM): 56.9%
- viability, T/C [21]: 61.4%
- viability, T/C [22]: 62.9%
- viability, T/C [23]: 72.9%
- viability, T/C [24]: 88%

Structure (SMILES): Cn1ncc(Cl)c1-c1cc(C(=O)NC(CN)Cc2cccc(F)c2)sc1Cl (stereo unspecified) + COc1c(OCCCN2CCOCC2)ccc2c3n(c(=NC(=O)c4cnc(N)nc4)nc12)CCN3
- IC50 (second compound 0.00316 µM): > 10 µM
- IC50 (second compound 0.01 µM): 8.26 µM
- IC50 (second compound 0.0316 µM): 8.19 µM
- IC50 (second compound 0.1 µM): 7.47 µM
- IC50 (second compound 0.316 µM): 5.31 µM
- IC50 (second compound 1 µM): 4.55 µM
- viability, T/C [1]: 86.6%
- viability, T/C [2]: 72%
- viability, T/C [3]: 90.8%
- viability, T/C [4]: 87.7%
- viability, T/C [25]: 72.7%
- viability, T/C [26]: 50%
- viability, T/C [5]: 118%
- viability, T/C [6]: 81.2%
- viability, T/C [7]: 93.7%
- viability, T/C [8]: 81.6%
- viability, T/C [27]: 62.6%
- viability, T/C [28]: 45.5%
- viability, T/C [9]: 86.1%
- viability, T/C [10]: 85.5%
- viability, T/C [11]: 89.2%
- viability, T/C [12]: 74%
- viability, T/C [29]: 71%
- viability, T/C [30]: 45.4%
- viability, T/C [13]: 78.2%
- viability, T/C [14]: 81.3%
- viability, T/C [15]: 68.3%
- viability, T/C [16]: 69.2%
- viability, T/C [31]: 64.7%
- viability, T/C [32]: 44.9%
- viability, T/C [17]: 80.9%
- viability, T/C [18]: 66.6%
- viability, T/C [19]: 64.7%
- viability, T/C [20]: 66.9%
- viability, T/C [33]: 63.4%
- viability, T/C [34]: 36.3%
- viability, T/C [21]: 68.5%
- viability, T/C [22]: 58.3%
- viability, T/C [23]: 61.6%
- viability, T/C [24]: 57.9%
- viability, T/C [35]: 57.8%
- viability, T/C [36]: 35.8%

Structure (SMILES): Cn1nccc1Nc1nccc(-c2ccn(C(CO)c3ccc(Cl)c(F)c3)c(=O)c2)n1 (stereo unspecified) + COc1c(OCCCN2CCOCC2)ccc2c3n(c(=NC(=O)c4cnc(N)nc4)nc12)CCN3
- IC50 (second compound 0.00316 µM): > 10 µM
- IC50 (second compound 0.01 µM): > 10 µM
- IC50 (second compound 0.0316 µM): 0.37 µM
- IC50 (second compound 0.1 µM): 0.138 µM
- IC50 (second compound 0.316 µM): 0.0535 µM
- IC50 (second compound 1 µM): 0.0374 µM
- viability, T/C [1]: 102%
- viability, T/C [2]: 86.5%
- viability, T/C [3]: 78.2%
- viability, T/C [4]: 75.5%
- viability, T/C [25]: 82.7%
- viability, T/C [26]: 81.2%
- viability, T/C [5]: 102%
- viability, T/C [6]: 71.9%
- viability, T/C [7]: 74.2%
- viability, T/C [8]: 67%
- viability, T/C [27]: 66.7%
- viability, T/C [28]: 50.5%
- viability, T/C [9]: 85.7%
- viability, T/C [10]: 59%
- viability, T/C [11]: 58.9%
- viability, T/C [12]: 37.1%
- viability, T/C [29]: 33.6%
- viability, T/C [30]: 26.5%
- viability, T/C [13]: 69.5%
- viability, T/C [14]: 53.3%
- viability, T/C [15]: 39.1%
- viability, T/C [16]: 30.9%
- viability, T/C [31]: 26.6%
- viability, T/C [32]: 15.6%
- viability, T/C [17]: 55.3%
- viability, T/C [18]: 42.7%
- viability, T/C [19]: 36.3%
- viability, T/C [20]: 22.8%
- viability, T/C [33]: 15.1%
- viability, T/C [34]: 11.8%
- viability, T/C [21]: 51.5%
- viability, T/C [22]: 42.9%
- viability, T/C [23]: 36.8%
- viability, T/C [24]: 26.5%
- viability, T/C [35]: 14.9%
- viability, T/C [36]: 7.14%
